Type in all cases: cell-based
Assay [1] has as its system E.coli Neum. The assay can be described thus: MIC, agar dilution test, E.coli Neum. The following applies: Escherichia coli, agar dilution test / Isosensitest medium. The source says:
(§1) As a comparison, the corresponding MIC values of 1-ethyl-6-fluoro-1,4-dihydro-4-oxo-7-(1-piperazinyl)-1,8-naphthyridine-3-carboxylic acid (AT 2266, enoxacin), which is known from European Patent Application 9,425, Japanese Patent Applications 81/45473 [C.A. 95, 115 597 (1981)] and 81/46811 [C.A. 95, 121 142 (1981)], from J. Med. Chem. 27, 292 (1984) or from J. Heterocycl.
(§2) Agar dilution test / Isosensitest medium
A general note: Agar dilution tests growth on a series of plates holding different concentrations.

Assay [2] has as its system Klebsiella 63. Kind of assay: MIC, agar dilution test, Klebsiella 63. Conditions: agar dilution test / Isosensitest medium.
Excerpt: as §1, §2

For assay [3], the system named is Klebsiella 6179. Kind of assay: MIC, agar dilution test, Klebsiella 6179. Conditions: agar dilution test / Isosensitest medium.
Excerpt: as §1, §2

In assay [4] the test system is Staphyloc. 133. The assay can be described thus: MIC, agar dilution test, Staphyloc. 133. The following applies: agar dilution test / Isosensitest medium.
Excerpt: as §1, §2

Assay [5] has as its system Proteus morg. 11006. The assay can be described thus: MIC, agar dilution test, Proteus morg. 11006. Conditions: agar dilution test / Isosensitest medium.
Excerpt: as §1, §2

The test system of assay [6] is E.coli 4418. The assay can be described thus: MIC, agar dilution test, E.coli 4418. Conditions: Escherichia coli, agar dilution test / Isosensitest medium.
Excerpt: as §1, §2

Assay [7] relates to Serratia 16040. The assay can be described thus: MIC, agar dilution test, Serratia 16040. The following applies: agar dilution test / Isosensitest medium.
Excerpt: as §1, §2

Assay [8] deals with Providencia 12012. The assay can be described thus: MIC, agar dilution test, Providencia 12012. The following applies: agar dilution test / Isosensitest medium.
Excerpt: as §1, §2

Assay [9] deals with Staphyloc. 1756. Kind of assay: MIC, agar dilution test, Staphyloc. 1756. The following applies: agar dilution test / Isosensitest medium.
Excerpt: as §1, §2

The test system of assay [10] is Proteus vulg. 1017. The assay can be described thus: MIC, agar dilution test, Proteus vulg. 1017. Conditions: agar dilution test / Isosensitest medium.
Excerpt: as §1, §2

The test system of assay [11] is Pseudomonas W. The assay can be described thus: MIC, agar dilution test, Pseudomonas W. The following applies: agar dilution test / Isosensitest medium.
Excerpt: as §1, §2

Assay [12] relates to E.Coli 455/7. Kind of assay: MIC, agar dilution test, E.Coli 455/7. The following applies: Escherichia coli, agar dilution test / Isosensitest medium.
Excerpt: as §1, §2

The subject of assay [13] is Proteus mir. 8175. Kind of assay: MIC, agar dilution test, Proteus mir. 8175. Conditions: agar dilution test / Isosensitest medium.
Excerpt: as §1, §2

Each structure is given as a SMILES string. Values after ≈ are worked out from the molar mass of the structure shown. Some results are limits rather than exact numbers.

In the case of `O=C(O)c1cn(C2CC2)c2nc(N3CCNCC3)c(F)cc2c1=O` [Example 1, 1-Cyclopropyl-6-fluoro-1,4-dihydro-4-oxo-7-(1-piperazinyl)-1,8-naphthyridine-3-carboxylic acid], the MIC in assay [1] is at most 0.015 µg/mL; in assay [2], 0.03 µg/mL (≈ 0.0903 µM); in assay [3], 0.125 µg/mL (≈ 0.376 µM); in assay [4] it was 0.5 µg/mL (≈ 1.5 µM); in [5], 0.06 µg/mL (≈ 0.181 µM); in assay [6] it was 0.03 µg/mL (≈ 0.0903 µM). The MIC in assay [7] amounted to 8 µg/mL (≈ 24.1 µM); in assay [8], 0.03 µg/mL (≈ 0.0903 µM); in assay [9], 0.5 µg/mL (≈ 1.5 µM); in [10], 0.06 µg/mL (≈ 0.181 µM); in assay [11] it was 0.125 µg/mL (≈ 0.376 µM); in [12] it was 4 µg/mL (≈ 12 µM). The MIC in [13] came out at 0.125 µg/mL (≈ 0.376 µM).
As for `CN1CCN(c2nc3c(cc2F)c(=O)c(C(=O)O)cn3C2CC2)CC1.Cl` [Example 3, 1-Cyclopropyl-6-fluoro-1,4-dihydro-7-(4-methyl-1-piperazinyl)-4-oxo-1,8-naphthyridine-3-carboxylic acid hydrochloride], the MIC in [1] was at most 0.015 µg/mL; in assay [2], at most 0.015 µg/mL; in assay [3], 0.03 µg/mL; in [4], 0.5 µg/mL; in assay [5] it was 0.06 µg/mL; in [6], 0.06 µg/mL. For the same compound, the MIC came out at 8 µg/mL in assay [7]; 0.06 µg/mL in assay [8]; 0.5 µg/mL in [9]; 0.125 µg/mL in assay [10]; 1 µg/mL in [11]; 8 µg/mL in assay [12]. In addition, the MIC in assay [13] stood at 0.25 µg/mL.
On to `CC1CN(c2nc3c(cc2F)c(=O)c(C(=O)O)cn3C2CC2)CCN1` (stereo not shown) [Example 2, 1-Cyclopropyl-6-fluoro-1,4-dihydro-7-(3-methyl-1-piperazinyl)-4-oxo-1,8-naphthyridine-3-carboxlyic acid], for which the MIC in assay [1] is at most 0.015 µg/mL; in [2], at most 0.015 µg/mL; in assay [3], 0.125 µg/mL (≈ 0.361 µM); in assay [4], 0.5 µg/mL (≈ 1.44 µM); in assay [5], 0.03 µg/mL (≈ 0.0866 µM); in assay [6], 0.03 µg/mL (≈ 0.0866 µM). For the same compound, the MIC was found to be 8 µg/mL (≈ 23.1 µM) in [7]; 0.125 µg/mL (≈ 0.361 µM) in assay [8]; 0.5 µg/mL (≈ 1.44 µM) in assay [9]; 0.125 µg/mL (≈ 0.361 µM) in [10]; 1 µg/mL (≈ 2.89 µM) in assay [11]; 8 µg/mL (≈ 23.1 µM) in assay [12]. Also, 0.25 µg/mL (≈ 0.722 µM) was the least that counted as inhibitory in assay [13] (MIC).
As to `CCn1cc(C(=O)O)c(=O)c2cc(F)c(N3CCNCC3)nc21` [Enoxacin, 1-ethyl-6-fluoro-1,4-dihydro-4-oxo-7-(1-piperazinyl)-1,8-naphthyridine-3-carboxylic acid, reference compound], the MIC stood at 0.06 µg/mL (≈ 0.187 µM) in assay [1]; 0.5 µg/mL (≈ 1.56 µM) in [2]; 2 µg/mL (≈ 6.24 µM) in assay [3]; 1 µg/mL (≈ 3.12 µM) in assay [4]; 0.125 µg/mL (≈ 0.39 µM) in assay [5]; 0.25 µg/mL (≈ 0.78 µM) in assay [6]. Also, the MIC in [7] was found to be 32 µg/mL (≈ 99.9 µM); in assay [8], 0.25 µg/mL (≈ 0.78 µM); in assay [9] it was 1 µg/mL (≈ 3.12 µM); in assay [10], 0.125 µg/mL (≈ 0.39 µM); in [11] it was 2 µg/mL (≈ 6.24 µM); in assay [12], 16 µg/mL (≈ 49.9 µM). For the same compound, in [13], 0.25 µg/mL (≈ 0.78 µM) was the least that counted as inhibitory (MIC).

In general, MIC refers to the lowest concentration found to suppress growth. A high value points to weaker potency.

These data come from patent US4840954A, “6,7-disubstituted 1-cycloproply-1,4-dihydro-4-oxo-1,8-naphthyridine-3-carboxylic acids” (Bayer Aktiengesellschaft, priority 1985, dated 1989).
